# From patent US4067997A, “Synergistic microbecidal composition and method” (priority 1976, dated 1978)
# Legend:
# [1] = tested on: Streptococcus Group A; experiment: MIC, broth dilution (Examples I/II); format: cell-based, beta-hemolytic streptococci Group A; conditions: Group A Strep; read-out: Inhibitory concentration
# In short: (§1)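 Fatty acids and esters, dispersed from ethanol or methanol into Trypticase Soy Broth with warming and sonication, were twofold diluted from 1,000 to 125 μg/ml. Tubes were inoculated with 18-h or 13-24 h broth cultures (10^7–10^9 organisms/ml) and incubated at 35–36°C. MIC, the lowest concentration without visible turbidity versus controls, is expressed in μmole/ml.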
# [2] = tested on: Streptococcus Group D; experiment: MIC, broth dilution (Examples I/II); format: cell-based; conditions: Group D Strep
# Protocol: (§2) In order to establish comparative bactericidal and fungicidal results with homologous fatty acids, a series of experiments was performed with thirty straight-chain fatty acids and derivatives thereof. Eight different gram-negative and twelve different gram-positive organisms, representing a very broad spectrum of organisms, were used in these experiments including the fungus Candida (a yeast). Additionally, fatty acids were chosen to show the effects of saturation versus unsaturation, in the fatty acid claim. Standard solutions of the fatty acids and their derivatives were prepared by first dissolving the weighed compounds in 1 to 2 ml of 95% ethanol and immediately pouring this solution into 200 ml of Tripticase Soy Broth. These lipid compounds which are insoluble in water and broth precipitated into very small crystals or droplets. The tubes containing the suspension were warmed to approximately 70° C and were then placed in an ultrasonic tank for further solubilization of the lipid derivatives.
# (§3) Standard solutions (or suspensions) at 1,000 μg/ml were twofold serially diluted with additional broth to a concentration of 125 μg/ml. A 4-ml amount of each dilution was then quickly, and with constant agitation, dispensed into appropriately labeled screw-capped glass tubes (16 by 125 mm). The tubes were sterilized with steam at 15 psi for 15 minutes. After sterilization, all tubes were cooled and incubated overnight at 35° C to insure sterility.
# (§4) All compounds were compared on a molar (micromoles/milliliter) rather than on a mass basis. In the following lists of organisms used, those followed by a parenthetical number are registered with the American Type Culture Collection (ATCC); the remainder were isolates from Providence Hospital or Northland Laboratory.
# One drop (0.04 ± 0.01 ml) of an 18-hr broth culture containing 10^7 and 10^9 organisms/ml was added to each dilution of the test compound, as well as to a tube of plain broth which served as the positive control. After inoculation, the contents of each tube were well mixed, and the tubes were incubated at 35° C in a 5% carbon dioxide + […] atmosphere.
# The MIC is defined as the lowest concentration of compound at which no […] evidence of growth was observed when turbidity of the inoculated broth dilutions was compared with control tubes. […] Only a one-tube difference between the bactericidal and bacteriostatic concentrations was normally observed.
# (§5) Standard solutions (1000 μg/ml) of three fatty acids and polyglycerol esters thereof were prepared as described in Example I. Also sucrose esters were prepared by transferring the weighed compounds (0.2 gm. dissolved in 1 ml absolute methanol) into 200 ml of sterile Trypticase Soy Broth (TSB). These standard solutions (1000 μg/ml) were twofold serially diluted with additional sterile broth to a concentration of 125 μg/ml. A 3.8 aliquot of each dilution was asceptically delivered into sterile screw-capped culture tubes. All tubes were incubated overnight at 36° C to insure sterility. The microorganisms used in this example were the same as those used in Example I.
# (§6) The inoculum, 0.05 ml of an 13-24 hour TSB culture (approximately 10^9 organisms/ml) was asceptically delivered into all dilutions of the compounds, mixed well, and incubated at 36° C. A tube of inoculated broth without the compound served as a positive control and an uninoculated set of dilutions incubated along with the test dilutions, served as a negative control.
# In those cases in which the test compound itself caused turbidity, an aliquot (0.015 ml) of the mixed broth was inoculated onto an agar plate and incubated at 36° C for examination, as described in Example I. The control procedure of Example I was also repeated. The lauric, capric, and oleic acids were used as internal controls and for comparison to Example I. The minimal inhibitory concentrations (μmole/ml) for the compounds studied are given in Tables 7 and 8.
# [3] = tested on: Saccharomyces cerevisiae; experiment: MIC, broth dilution (Example II); format: cell-based; conditions: 18 h, read-out: Inhibitory concentration
# Protocol: as §5, §6
# In those cases in which the test compound itself caused turbidity, an aliquot (0.015 ml) of the mixed broth was inoculated onto an agar plate and incubated at 36° C for examination, as described in Example I. The control procedure of Example I was also repeated. […]
# [4] = tested on: S. aureus; experiment: MIC, broth dilution (Examples I/II); format: cell-based, Staphylococcus aureus; conditions: Staphylococcus aureus; S. aureus; read-out: Inhibitory concentration
# Protocol: as §2, §3, §4
# One drop (0.04 ± 0.01 ml) of an 18-hr broth culture containing 10^7 and 10^9 organisms/ml was added to each dilution of the test compound, as well as to a tube of plain broth which served as the positive control. […]
# [5] = tested on: Nocardia asteroides; experiment: MIC, broth dilution (Examples I/II); format: cell-based, Nocardia asteroids (3308); conditions: Nocardia asteroides; read-out: Inhibitory concentration
# In short: as §1
# [6] = tested on: E. coli; experiment: MIC, broth dilution (Example II); format: cell-based, Escherichia coli
# Protocol: Proteus vulgaris, P. mirabilis (14273), P. rettgeri (9250), Escherichia coli, Serratia marcescens (13880), Enterobacter-Klebsiella, Pseudomonas aeruginosa (10145), and Salmonella typhimurium.
# as §5
# as §6, with “control. […]” for “control.”
smiles,measurement,setting,value
"CCCCCCCCCCC(O)C(=O)OC (stereo not drawn) [Methyl, α-hydroxylaurate]",MIC,[1],540 µM
same,Inhibition in words,[2],Neither compound was inhibitory
same,MIC,[3],540 µM
same,MIC,[4],540 µM
same,MIC,[5],4340 µM
same,Inhibition in words,[6],Neither compound was inhibitory
